# Results published in patent US9017645B2, “Homoglutamic acid derivatives” (Piramal Imaging SA, priority 2009, dated 2015).
# System: H460 tumor bearing mice
# Test: Biodistribution in H460 tumor bearing mice
# Assay type: in vivo, NMRI (nu/nu) mice
# Settings: for summary: urine: in %; for summary: carcass / summary: organs / summary: recovery: in % (unit assumed)
# Procedure: Biodistribution in H460 tumor bearing mice. To test the pharmacokinetic properties of (2S)-2-amino-5-[3-[^18F]fluoropropyl]hexanedioic acid, the fluorinated compound was examined in H460 tumor bearing mice. NMRI (nu/nu) mice were inoculated with H460 tumor cells 8 to 10 days before the biodistribution studies. 185 kBq of activity of the fluorinated compound was injected into each mouse. n=3 mice were used at every time point. After injection of the F18-labeled compound, mice were sacrificed at the timepoints indicated. All organs were removed and radioactivity was determined using a γ-counter. […] Clearance of radioactivity takes place via the kidneys, with 67.9% of activity being excreted at 1 h p.i.
# [1] = 1 h p.i., H460 tumor bearing mice
structure (smiles),measurement,setting,value
N[C@@H](CCC(CCC[18F])C(=O)O)C(=O)O (stereo partly drawn) [(2S)-2-amino-5-[3-[^18F]fluoropropyl]hexanedioic acid],activity excreted via the kidneys,[1],67.9%
same,uptake in the tumor,[1],10.29 % injected dose per gram of tumor
same,retention of activity in the tumor,"4 h p.i., H460 tumor bearing mice",5.85 % injected dose per gram of tumor
same,tumor to blood ratio,H460 tumor bearing mice,34.7
same,tumor to muscle ratio,H460 tumor bearing mice,62.6
same,Tumor/Tissue bone,timepoint 0.25 h,18.92
same,Tumor/Tissue brain,timepoint 0.25 h,58.25
same,Tumor/Tissue heart,timepoint 0.25 h,17.61
same,Tumor/Tissue kidney,timepoint 0.25 h,0.60
same,Tumor/Tissue muscle,timepoint 0.25 h,28.44
same,Tumor/Tissue skin,timepoint 0.25 h,3.82
same,biodistribution adrenals,timepoint 0.25 h,1.18 % Dosis/g
same,biodistribution blood,timepoint 0.25 h,1.36 % Dosis/g
same,biodistribution bone,timepoint 0.25 h,0.57 % Dosis/g
same,biodistribution brain,timepoint 0.25 h,0.18 % Dosis/g
same,biodistribution fat,timepoint 0.25 h,0.25 % Dosis/g
same,biodistribution gallbladder,timepoint 0.25 h,1.08 % Dosis/g
same,biodistribution heart,timepoint 0.25 h,0.60 % Dosis/g
same,biodistribution intestine,timepoint 0.25 h,2.34 % Dosis/g
same,biodistribution kidney,timepoint 0.25 h,17.49 % Dosis/g
same,biodistribution lung,timepoint 0.25 h,3.22 % Dosis/g
same,biodistribution muscle,timepoint 0.25 h,0.37 % Dosis/g
same,biodistribution ovaries,timepoint 0.25 h,4.04 % Dosis/g
same,biodistribution pancreas,timepoint 0.25 h,26.85 % Dosis/g
same,biodistribution skin,timepoint 0.25 h,2.82 % Dosis/g
same,biodistribution spleen,timepoint 0.25 h,5.15 % Dosis/g
same,biodistribution stomach,timepoint 0.25 h,10.27 % Dosis/g
same,biodistribution tail,timepoint 0.25 h,8.12 % Dosis/g
same,biodistribution thyroid,timepoint 0.25 h,2.05 % Dosis/g
same,biodistribution tumor,timepoint 0.25 h,10.58 % Dosis/g
same,biodistribution uterus,timepoint 0.25 h,4.37 % Dosis/g
same,summary: urine,timepoint 0.25 h,30.17
same,summary: carcass,timepoint 0.25 h,18.07
same,summary: organs,timepoint 0.25 h,39.99
same,summary: recovery,timepoint 0.25 h,88.24
same,Tumor/Tissue bone,timepoint 0.5 h,15.47
same,Tumor/Tissue brain,timepoint 0.5 h,69.00
same,Tumor/Tissue heart,timepoint 0.5 h,34.35
same,Tumor/Tissue kidney,timepoint 0.5 h,1.43
same,Tumor/Tissue muscle,timepoint 0.5 h,54.98
same,Tumor/Tissue skin,timepoint 0.5 h,3.20
same,biodistribution adrenals,timepoint 0.5 h,0.67 % Dosis/g
same,biodistribution blood,timepoint 0.5 h,0.45 % Dosis/g
same,biodistribution bone,timepoint 0.5 h,0.53 % Dosis/g
same,biodistribution brain,timepoint 0.5 h,0.12 % Dosis/g
same,biodistribution fat,timepoint 0.5 h,0.18 % Dosis/g
same,biodistribution gallbladder,timepoint 0.5 h,0.47 % Dosis/g
same,biodistribution heart,timepoint 0.5 h,0.24 % Dosis/g
same,biodistribution intestine,timepoint 0.5 h,1.96 % Dosis/g
same,biodistribution kidney,timepoint 0.5 h,5.64 % Dosis/g
same,biodistribution lung,timepoint 0.5 h,1.62 % Dosis/g
same,biodistribution muscle,timepoint 0.5 h,0.15 % Dosis/g
same,biodistribution ovaries,timepoint 0.5 h,6.23 % Dosis/g
same,biodistribution pancreas,timepoint 0.5 h,21.26 % Dosis/g
same,biodistribution skin,timepoint 0.5 h,2.51 % Dosis/g
same,biodistribution spleen,timepoint 0.5 h,4.37 % Dosis/g
same,biodistribution stomach,timepoint 0.5 h,7.82 % Dosis/g
same,biodistribution tail,timepoint 0.5 h,5.67 % Dosis/g
same,biodistribution thyroid,timepoint 0.5 h,1.58 % Dosis/g
same,biodistribution tumor,timepoint 0.5 h,8.17 % Dosis/g
same,biodistribution uterus,timepoint 0.5 h,2.63 % Dosis/g
same,summary: faeces,timepoint 0.5 h,0%
same,summary: urine,timepoint 0.5 h,48.69
same,summary: carcass,timepoint 0.5 h,10.51
same,summary: organs,timepoint 0.5 h,32.54
same,summary: recovery,timepoint 0.5 h,91.75
same,Tumor/Tissue bone,timepoint 1.0 h,22.16
same,Tumor/Tissue brain,timepoint 1.0 h,93.25
same,Tumor/Tissue heart,timepoint 1.0 h,57.45
same,Tumor/Tissue kidney,timepoint 1.0 h,3.31
same,Tumor/Tissue muscle,timepoint 1.0 h,62.55
same,Tumor/Tissue skin,timepoint 1.0 h,4.24
same,biodistribution adrenals,timepoint 1.0 h,0.61 % Dosis/g
same,biodistribution blood,timepoint 1.0 h,0.30 % Dosis/g
same,biodistribution bone,timepoint 1.0 h,0.46 % Dosis/g
same,biodistribution brain,timepoint 1.0 h,0.11 % Dosis/g
same,biodistribution fat,timepoint 1.0 h,0.14 % Dosis/g
same,biodistribution gallbladder,timepoint 1.0 h,0.57 % Dosis/g
same,biodistribution heart,timepoint 1.0 h,0.18 % Dosis/g
same,biodistribution intestine,timepoint 1.0 h,1.77 % Dosis/g
same,biodistribution kidney,timepoint 1.0 h,3.10 % Dosis/g
same,biodistribution lung,timepoint 1.0 h,1.43 % Dosis/g
same,biodistribution muscle,timepoint 1.0 h,0.16 % Dosis/g
same,biodistribution ovaries,timepoint 1.0 h,1.86 % Dosis/g
same,biodistribution pancreas,timepoint 1.0 h,16.68 % Dosis/g
same,biodistribution skin,timepoint 1.0 h,2.43 % Dosis/g
same,biodistribution spleen,timepoint 1.0 h,2.87 % Dosis/g
same,biodistribution stomach,timepoint 1.0 h,4.47 % Dosis/g
same,biodistribution tail,timepoint 1.0 h,2.33 % Dosis/g
same,biodistribution thyroid,timepoint 1.0 h,1.57 % Dosis/g
same,biodistribution tumor,timepoint 1.0 h,10.29 % Dosis/g
same,biodistribution uterus,timepoint 1.0 h,2.45 % Dosis/g
same,summary: faeces,timepoint 1.0 h,0%
same,summary: urine,timepoint 1.0 h,67.90
same,summary: carcass,timepoint 1.0 h,9.28
same,summary: organs,timepoint 1.0 h,25.76
same,summary: recovery,timepoint 1.0 h,102.93
same,Tumor/Tissue bone,timepoint 2.0 h,18.25
same,Tumor/Tissue brain,timepoint 2.0 h,87.08
same,Tumor/Tissue heart,timepoint 2.0 h,54.23
same,Tumor/Tissue kidney,timepoint 2.0 h,6.15
same,Tumor/Tissue muscle,timepoint 2.0 h,62.45
same,Tumor/Tissue skin,timepoint 2.0 h,3.59
same,biodistribution adrenals,timepoint 2.0 h,0.52 % Dosis/g
same,biodistribution blood,timepoint 2.0 h,0.15 % Dosis/g
same,biodistribution bone,timepoint 2.0 h,0.40 % Dosis/g
same,biodistribution brain,timepoint 2.0 h,0.08 % Dosis/g
same,biodistribution fat,timepoint 2.0 h,0.07 % Dosis/g
same,biodistribution gallbladder,timepoint 2.0 h,0.48 % Dosis/g
same,biodistribution heart,timepoint 2.0 h,0.13 % Dosis/g
same,biodistribution intestine,timepoint 2.0 h,1.23 % Dosis/g
same,biodistribution kidney,timepoint 2.0 h,1.17 % Dosis/g
same,biodistribution lung,timepoint 2.0 h,1.04 % Dosis/g
same,biodistribution muscle,timepoint 2.0 h,0.11 % Dosis/g
same,biodistribution ovaries,timepoint 2.0 h,1.58 % Dosis/g
same,biodistribution pancreas,timepoint 2.0 h,7.70 % Dosis/g
same,biodistribution skin,timepoint 2.0 h,1.97 % Dosis/g
same,biodistribution stomach,timepoint 2.0 h,3.35 % Dosis/g
same,biodistribution tail,timepoint 2.0 h,1.64 % Dosis/g
same,biodistribution thyroid,timepoint 2.0 h,1.37 % Dosis/g
same,biodistribution tumor,timepoint 2.0 h,6.72 % Dosis/g
same,biodistribution uterus,timepoint 2.0 h,2.72 % Dosis/g
same,summary: faeces,timepoint 2.0 h,0.01%
same,summary: urine,timepoint 2.0 h,68.67
same,summary: carcass,timepoint 2.0 h,9.12
same,summary: organs,timepoint 2.0 h,17.68
same,summary: recovery,timepoint 2.0 h,94.72
same,Tumor/Tissue bone,timepoint 4.0 h,15.04
same,Tumor/Tissue brain,timepoint 4.0 h,83.21
same,Tumor/Tissue heart,timepoint 4.0 h,68.93
same,Tumor/Tissue kidney,timepoint 4.0 h,8.78
same,Tumor/Tissue muscle,timepoint 4.0 h,64.19
same,Tumor/Tissue skin,timepoint 4.0 h,5.40
same,biodistribution adrenals,timepoint 4.0 h,0.61 % Dosis/g
same,biodistribution blood,timepoint 4.0 h,0.10 % Dosis/g
same,biodistribution bone,timepoint 4.0 h,0.39 % Dosis/g
same,biodistribution brain,timepoint 4.0 h,0.08 % Dosis/g
same,biodistribution fat,timepoint 4.0 h,0.06 % Dosis/g
same,biodistribution gallbladder,timepoint 4.0 h,0.70 % Dosis/g
same,biodistribution heart,timepoint 4.0 h,0.08 % Dosis/g
same,biodistribution intestine,timepoint 4.0 h,0.97 % Dosis/g
same,biodistribution kidney,timepoint 4.0 h,0.72 % Dosis/g
same,biodistribution lung,timepoint 4.0 h,0.81 % Dosis/g
same,biodistribution muscle,timepoint 4.0 h,0.09 % Dosis/g
same,biodistribution ovaries,timepoint 4.0 h,2.18 % Dosis/g
same,biodistribution pancreas,timepoint 4.0 h,4.51 % Dosis/g
same,biodistribution skin,timepoint 4.0 h,1.31 % Dosis/g
same,biodistribution stomach,timepoint 4.0 h,1.27 % Dosis/g
same,biodistribution tail,timepoint 4.0 h,3.43 % Dosis/g
same,biodistribution thyroid,timepoint 4.0 h,0.98 % Dosis/g
same,biodistribution tumor,timepoint 4.0 h,5.85 % Dosis/g
same,biodistribution uterus,timepoint 4.0 h,1.41 % Dosis/g
same,summary: faeces,timepoint 4.0 h,2.1%
same,summary: urine,timepoint 4.0 h,77.27
same,summary: carcass,timepoint 4.0 h,4.03
same,summary: organs,timepoint 4.0 h,12.00
same,summary: recovery,timepoint 4.0 h,94.87
